According to US8178678B2, “Bis-quaternary ammonium salts and methods for modulating neuronal nicotinic acetylcholine receptors” (University of Kentucky Research Foundation, priority 2006, dated 2012):
Where two headings read alike, the source gives them in different places.

How the values were obtained:
[1] = target: T1, Rat Striatal Nicotinic Receptors ([^3H]MLA binding sites; α7) (Rattus norvegicus, UniProt Q05941); assay: Inhibition of [^3H]MLA (methyllycaconitine) binding
T1 construct: Whole brain, excluding cortex and cerebellum, was homogenized in 20 vol of ice-cold buffer; from tissue; host or cells: rat brain membranes (whole brain excluding cortex and cerebellum)
Outline: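 Rat brain membranes were washed by repeated centrifugation at 25,000 g, with a 10 min incubation at 37° C. in between. Samples of 250 μl, containing 100-140 μg of membrane protein, 3 nM [^3H]-methyllycaconitine and test analog in 50 mM Tris assay buffer, were incubated in 96-well plates for 60 min at room temperature. Nonspecific binding was defined with 10 μM S-nicotine. Bound radioactivity was collected on polyethylenimine-soaked GF/B filter plates and counted on a TopCount.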

[2] = target: T2, Rat Striatal Nicotinic Receptors ([^3H]NIC binding sites; α4β2) (Rattus norvegicus, UniProt P09483+P12390); assay: Inhibition of [^3H]NIC binding
T2 construct: Whole brain, excluding cortex and cerebellum, was homogenized in 20 vol of ice-cold buffer; from tissue; host or cells: rat brain membranes (whole brain excluding cortex and cerebellum)

[3] = system: nicotinic receptors mediating S-nicotine-evoked [^3H]DA release in rat striatal slices; assay: Inhibition of S-nicotine-evoked [^3H]dopamine release from superfused rat striatal slices; assay type: cell-based; details: for inhibition at 0.1 µM: 1 h, read-out: [^3H]DA release, % inhibition of S-nicotine-evoked release
Outline: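 Superfused rat striatal slices preloaded with 0.1 μM [3H]DA, in Krebs buffer with nomifensine and pargyline (10 μM each), 34 °C. Analogs (100 nM) given 60 min before 10 μM S-nicotine; tritium overflow by scintillation, inhibition expressed as percent of nicotine-evoked overflow without analog; full concentration-effect curves where […] given.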

[4] = full concentration effect, [^3H]MLA, nonspecific S-nicotine, rat brain membranes, read-out: [^3H]MLA binding, Ki
[5] = full concentration effect, 3 nM [^3H]NIC, nonspecific 10 μM cytisine, rat brain membranes, read-out: [^3H]NIC binding, Ki
[6] = 100 nM analog superfused 60 min before NIC 10 μM, rat striatal slices

T1 sequence (Q05941 23-502): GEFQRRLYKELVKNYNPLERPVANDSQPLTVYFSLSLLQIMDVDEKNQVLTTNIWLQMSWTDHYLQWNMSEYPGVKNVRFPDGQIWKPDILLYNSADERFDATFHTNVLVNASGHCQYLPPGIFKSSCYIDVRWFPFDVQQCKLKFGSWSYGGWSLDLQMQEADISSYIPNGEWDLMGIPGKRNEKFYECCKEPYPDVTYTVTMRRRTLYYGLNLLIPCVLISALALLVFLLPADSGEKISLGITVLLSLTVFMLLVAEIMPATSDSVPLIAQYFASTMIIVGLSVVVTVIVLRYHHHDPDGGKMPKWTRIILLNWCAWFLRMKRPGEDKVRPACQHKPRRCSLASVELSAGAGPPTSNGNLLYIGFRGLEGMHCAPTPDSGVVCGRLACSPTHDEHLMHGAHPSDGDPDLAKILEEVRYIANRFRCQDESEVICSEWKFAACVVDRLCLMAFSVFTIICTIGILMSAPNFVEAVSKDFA
T2 sequence (P09483 31-630): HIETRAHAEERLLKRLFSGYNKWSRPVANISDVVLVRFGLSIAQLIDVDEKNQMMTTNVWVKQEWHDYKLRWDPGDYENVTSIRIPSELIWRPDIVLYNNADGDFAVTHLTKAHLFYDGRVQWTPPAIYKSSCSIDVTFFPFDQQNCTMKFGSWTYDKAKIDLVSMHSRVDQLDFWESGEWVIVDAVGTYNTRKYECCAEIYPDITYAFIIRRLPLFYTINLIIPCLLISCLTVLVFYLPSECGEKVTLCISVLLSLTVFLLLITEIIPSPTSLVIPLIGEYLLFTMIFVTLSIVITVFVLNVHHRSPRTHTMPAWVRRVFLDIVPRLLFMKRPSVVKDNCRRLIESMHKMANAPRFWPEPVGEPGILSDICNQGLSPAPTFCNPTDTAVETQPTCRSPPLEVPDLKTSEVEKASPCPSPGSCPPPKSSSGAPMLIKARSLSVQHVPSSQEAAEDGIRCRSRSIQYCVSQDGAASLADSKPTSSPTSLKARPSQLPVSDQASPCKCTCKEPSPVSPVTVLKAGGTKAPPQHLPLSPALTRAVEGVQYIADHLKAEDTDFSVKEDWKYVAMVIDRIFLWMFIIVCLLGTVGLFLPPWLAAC
T2 sequence (P12390 25-500): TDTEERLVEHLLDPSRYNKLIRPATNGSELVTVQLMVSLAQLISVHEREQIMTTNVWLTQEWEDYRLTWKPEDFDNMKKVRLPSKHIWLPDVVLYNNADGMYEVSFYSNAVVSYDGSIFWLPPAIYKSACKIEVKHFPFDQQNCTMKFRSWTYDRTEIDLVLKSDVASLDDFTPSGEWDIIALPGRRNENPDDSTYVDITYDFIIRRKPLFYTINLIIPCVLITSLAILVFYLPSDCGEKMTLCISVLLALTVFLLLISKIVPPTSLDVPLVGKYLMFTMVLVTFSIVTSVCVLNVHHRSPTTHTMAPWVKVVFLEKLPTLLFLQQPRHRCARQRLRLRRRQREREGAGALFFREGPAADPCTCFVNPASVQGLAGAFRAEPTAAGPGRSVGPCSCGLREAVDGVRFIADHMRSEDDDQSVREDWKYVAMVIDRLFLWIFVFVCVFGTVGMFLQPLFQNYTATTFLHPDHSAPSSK

SMILES | Ki [1, 4] [µM] | Ki [2, 5] [µM] | inhibition at 0.1 µM [3, 6] [%] | inhibition at 0.1 µM ([3]; Rattus norvegicus) [%] | Ki [1] [µM] | Ki [2] [µM] | IC50 ([3]; NIC 10 μM, rat striatal slices) [µM]
Cc1cc[n+](CCCCC#CC#CCCCC[n+]2ccc(C)cc2)cc1 [Example 93, N,N′-(5,7-dodecadiyn-1,12-diyl)-bis-(4-methylpyridinium)dichloride] | 5.11 | 8.93 | 19 |  |  |  | 
CN1CCC[C@H]1c1ccc[n+](CCCC/C=C\C=C/CCCC[n+]2cccc([C@@H]3CCCN3C)c2)c1 [Example 1, cis-cis-N,N′-(dodeca-5,7-diene-1,12-diyl)-bis-[3-(2′-S-1-methyl-pyrrolidin-2-yl)-pyridinium]dibromide] | > 100 | 1.09 |  | 11 |  |  | 
Cc1cc(C)c[n+](CCCCC#CC#CCCCC[n+]2cc(C)cc(C)c2)c1 [Example 95, N,N′-(5,7-dodecadiyn-1,12-diyl)-bis-(3,5-dimethylpyridinium)dichloride] |  |  |  |  | 25.6 | > 100 | > 1
Cc1ccc[n+](CCCCc2ccc(CCCC[n+]3cccc(C)c3)cc2)c1 [Example 12, N,N′-[1,4-phenylenedi-(4-butanyl)]-bis-(3-methylpyridinium)dibromide] | > 100 | > 100 | 44 |  |  |  | 
CN1CCC[C@@H]1c1ccc[n+](CCCCc2ccc(CCCC[n+]3cccc([C@H]4CCCN4C)c3)cc2)c1 [Example 10, N,N′-[1,4-phenylenedi-(4-butanyl)]-bis-[3-(2′-S-1-methyl-pyrrolidin-2-yl)-pyridinium]dibromide] | > 100 | 0.63 | 17 |  |  |  | 
Cc1cc[n+](CCCCC#CC#CCCCC[n+]2ccc(C)c(C)c2)cc1C [Example 94, N,N′-(5,7-dodecadiyn-1,12-diyl)-bis-(3,4-dimethylpyridinium)dichloride] | 24.1 | 8.6 | 21 |  |  |  | 
Cc1cccc[n+]1CCCCC#CC#CCCCC[n+]1ccccc1C [Example 91, N,N′-(5,7-dodecadiyn-1,12-diyl)-bis-(2-methylpyridinium)dichloride] | 23.9 | 4.4 | 6 |  |  |  | 
Cc1ccc[n+](CCCC/C=C\C=C/CCCC[n+]2cccc(C)c2)c1 [Example 3, cis-cis-N,N′-(dodeca-5,7-diene-1,12-diyl)-bis-(3-methyl-pyridinium)dibromide] | > 100 | > 100 | 31 |  |  |  | 
Cc1cc[n+](CCC#Cc2ccc(C#CCC[n+]3ccc(C)cc3)cc2)cc1 [Example 98, N,N′-[(1,4-phenylene)-bis-(4-butynyl)]-bis-(4-methyl-pyridinium)dibromide] | > 100 | 8.5 | 29 |  |  |  | 
Cc1cc[n+](CCCC/C=C\C=C/CCCC[n+]2ccc(C)cc2)cc1 [Example 4, cis-cis-N,N′-(dodeca-5,7-diene-1,12-diyl)-bis-(4-methyl-pyridinium)dibromide] |  | > 100 | 58 |  | > 100 |  | 
Cc1ccc[n+](CCCCC#CC#CCCCC[n+]2cccc(C)c2)c1 [Example 92, N,N′-(5,7-dodecadiyn-1,12-diyl)-bis-(3-methylpyridinium)dichloride] |  |  | 18 |  | > 100 | 6.36 | 
Cc1cccc[n+]1CCCCc1ccc(CCCC[n+]2ccccc2C)cc1 [Example 11, N,N′-[1,4-phenylenedi-(4-butanyl)]-bis-(2-methylpyridinium)dibromide] | > 100 | 5.94 | 37 |  |  |  | 
